Experimental data from the NIST ThermoML archive (doi:10.1016/j.fluid.2015.03.015).
± gives the expanded uncertainty stated by the source.

Assay: refractive index (other wavelength) (dimensionless); xn = mol fraction of the nth substance listed

CCCC(C)O (centres undefined) [pentan-2-ol] + CCCCCCCC[n+]1ccn(C)c1.F[B-](F)(F)F
Minimum deviation
Conditions | refractive index
284.59 K, Liquid mixture 1, Wavelength=623.8 nm, x2 = 0.01 | 1.4096 ± 0.0003
284.59 K, Liquid mixture 2, Wavelength=623.8 nm, x2 = 0.347 | 1.4237 ± 0.0004
285.29 K, Liquid mixture 1, Wavelength=623.8 nm, x2 = 0.01 | 1.4093 ± 0.0004
285.29 K, Liquid mixture 2, Wavelength=623.8 nm, x2 = 0.338 | 1.4232 ± 0.0003
286.13 K, Liquid mixture 1, Wavelength=623.8 nm, x2 = 0.012 | 1.4091 ± 0.0006
286.13 K, Liquid mixture 2, Wavelength=623.8 nm, x2 = 0.332 | 1.4227 ± 0.0003
286.89 K, Liquid mixture 1, Wavelength=623.8 nm, x2 = 0.013 | 1.4088 ± 0.0005
286.89 K, Liquid mixture 2, Wavelength=623.8 nm, x2 = 0.319 | 1.422 ± 0.0003
287.65 K, Liquid mixture 1, Wavelength=623.8 nm, x2 = 0.015 | 1.4086 ± 0.0004
287.65 K, Liquid mixture 2, Wavelength=623.8 nm, x2 = 0.315 | 1.4216 ± 0.0003
288.25 K, Liquid mixture 1, Wavelength=623.8 nm, x2 = 0.016 | 1.4084 ± 0.0004
288.25 K, Liquid mixture 2, Wavelength=623.8 nm, x2 = 0.307 | 1.4211 ± 0.0003
288.92 K, Liquid mixture 1, Wavelength=623.8 nm, x2 = 0.016 | 1.4081 ± 0.0003
288.92 K, Liquid mixture 2, Wavelength=623.8 nm, x2 = 0.293 | 1.4204 ± 0.0003
289.54 K, Liquid mixture 1, Wavelength=623.8 nm, x2 = 0.019 | 1.408 ± 0.0004
289.54 K, Liquid mixture 2, Wavelength=623.8 nm, x2 = 0.288 | 1.42 ± 0.0003
290.07 K, Liquid mixture 1, Wavelength=623.8 nm, x2 = 0.021 | 1.4079 ± 0.0004
290.07 K, Liquid mixture 2, Wavelength=623.8 nm, x2 = 0.279 | 1.4195 ± 0.0003
290.61 K, Liquid mixture 1, Wavelength=623.8 nm, x2 = 0.021 | 1.4077 ± 0.0004
290.61 K, Liquid mixture 2, Wavelength=623.8 nm, x2 = 0.271 | 1.419 ± 0.0003
291.08 K, Liquid mixture 1, Wavelength=623.8 nm, x2 = 0.023 | 1.4076 ± 0.0004
291.08 K, Liquid mixture 2, Wavelength=623.8 nm, x2 = 0.264 | 1.4186 ± 0.0003
291.55 K, Liquid mixture 1, Wavelength=623.8 nm, x2 = 0.025 | 1.4075 ± 0.0004
291.55 K, Liquid mixture 2, Wavelength=623.8 nm, x2 = 0.255 | 1.4181 ± 0.0003
292.02 K, Liquid mixture 1, Wavelength=623.8 nm, x2 = 0.027 | 1.4074 ± 0.0004
292.02 K, Liquid mixture 2, Wavelength=623.8 nm, x2 = 0.247 | 1.4176 ± 0.0003
292.46 K, Liquid mixture 1, Wavelength=623.8 nm, x2 = 0.03 | 1.4074 ± 0.0004
292.46 K, Liquid mixture 2, Wavelength=623.8 nm, x2 = 0.235 | 1.417 ± 0.0003
292.84 K, Liquid mixture 1, Wavelength=623.8 nm, x2 = 0.031 | 1.4073 ± 0.0004
292.84 K, Liquid mixture 2, Wavelength=623.8 nm, x2 = 0.229 | 1.4166 ± 0.0003
293.15 K, Liquid mixture 1, Wavelength=623.8 nm, x2 = 0.035 | 1.4074 ± 0.0004
293.15 K, Liquid mixture 2, Wavelength=623.8 nm, x2 = 0.221 | 1.4162 ± 0.0003
293.41 K, Liquid mixture 1, Wavelength=623.8 nm, x2 = 0.037 | 1.4074 ± 0.0004
293.41 K, Liquid mixture 2, Wavelength=623.8 nm, x2 = 0.211 | 1.4157 ± 0.0003
293.63 K, Liquid mixture 1, Wavelength=623.8 nm, x2 = 0.04 | 1.4075 ± 0.0003
293.63 K, Liquid mixture 2, Wavelength=623.8 nm, x2 = 0.206 | 1.4154 ± 0.0003
293.78 K, Liquid mixture 1, Wavelength=623.8 nm, x2 = 0.041 | 1.4075 ± 0.0003
293.78 K, Liquid mixture 2, Wavelength=623.8 nm, x2 = 0.202 | 1.4152 ± 0.0003
293.89 K, Liquid mixture 1, Wavelength=623.8 nm, x2 = 0.044 | 1.4076 ± 0.0004
293.89 K, Liquid mixture 2, Wavelength=623.8 nm, x2 = 0.201 | 1.4151 ± 0.0003
293.99 K, Liquid mixture 1, Wavelength=623.8 nm, x2 = 0.045 | 1.4076 ± 0.0003
293.99 K, Liquid mixture 2, Wavelength=623.8 nm, x2 = 0.197 | 1.4149 ± 0.0003
294.09 K, Liquid mixture 1, Wavelength=623.8 nm, x2 = 0.047 | 1.4077 ± 0.0004
294.09 K, Liquid mixture 2, Wavelength=623.8 nm, x2 = 0.193 | 1.4147 ± 0.0003
294.19 K, Liquid mixture 1, Wavelength=623.8 nm, x2 = 0.048 | 1.4077 ± 0.0003
294.19 K, Liquid mixture 2, Wavelength=623.8 nm, x2 = 0.189 | 1.4145 ± 0.0003
294.27 K, Liquid mixture 1, Wavelength=623.8 nm, x2 = 0.05 | 1.4078 ± 0.0019
294.27 K, Liquid mixture 2, Wavelength=623.8 nm, x2 = 0.188 | 1.4144 ± 0.0003
294.35 K, Liquid mixture 1, Wavelength=623.8 nm, x2 = 0.053 | 1.4079 ± 0.0004
294.35 K, Liquid mixture 2, Wavelength=623.8 nm, x2 = 0.184 | 1.4142 ± 0.0003
294.42 K, Liquid mixture 1, Wavelength=623.8 nm, x2 = 0.054 | 1.4079 ± 0.0004
294.42 K, Liquid mixture 2, Wavelength=623.8 nm, x2 = 0.18 | 1.414 ± 0.0003
294.49 K, Liquid mixture 1, Wavelength=623.8 nm, x2 = 0.056 | 1.408 ± 0.0004
294.49 K, Liquid mixture 2, Wavelength=623.8 nm, x2 = 0.175 | 1.4138 ± 0.0003
294.54 K, Liquid mixture 1, Wavelength=623.8 nm, x2 = 0.058 | 1.4081 ± 0.0004
294.54 K, Liquid mixture 2, Wavelength=623.8 nm, x2 = 0.174 | 1.4137 ± 0.0003
294.6 K, Liquid mixture 1, Wavelength=623.8 nm, x2 = 0.06 | 1.4082 ± 0.0003
294.6 K, Liquid mixture 2, Wavelength=623.8 nm, x2 = 0.172 | 1.4136 ± 0.0004
294.64 K, Liquid mixture 1, Wavelength=623.8 nm, x2 = 0.063 | 1.4083 ± 0.0004

85 kPa, Liquid, Wavelength=632.8 nm, Minimum Deviation
Conditions | refractive index
288.19 K, x2 = 0.599 | 1.4284 ± 0.0003
288.8 K, x2 = 0.899 | 1.4331 ± 0.0003
288.81 K, x2 = 0.798 | 1.4316 ± 0.0003
288.98 K, x2 = 0.7 | 1.4298 ± 0.0003
289.74 K, x2 = 0.599 | 1.428 ± 0.0003
290.84 K, x2 = 0.798 | 1.4311 ± 0.0003
290.84 K, x2 = 0.899 | 1.4326 ± 0.0003
290.99 K, x2 = 0.7 | 1.4293 ± 0.0003
291.3 K, x2 = 0.599 | 1.4275 ± 0.0003
292.85 K, x2 = 0.599 | 1.427 ± 0.0003
292.89 K, x2 = 0.899 | 1.432 ± 0.0003
292.91 K, x2 = 0.798 | 1.4305 ± 0.0003
293.05 K, x2 = 0.7 | 1.4287 ± 0.0003
293.9 K, x2 = 0.4 | 1.422 ± 0.0003
294.42 K, x2 = 0.599 | 1.4265 ± 0.0003
